pIC50: −log10 of the molar value.
Tests used:
MCF7 = assay: Cytotoxicity against human MCF7 cells assessed as cell growth inhibition measured after 24 to 48 hrs by SRB assay; type: functional, cell-based
HeLa = assay: Cytotoxicity against human HeLa cells assessed as cell growth inhibition; type: functional, cell-based
Ca-Ski = assay: Cytotoxicity against human Ca-Ski cells assessed as cell growth inhibition; type: functional, cell-based
BXPC-3 = assay: Cytotoxicity against human BXPC-3 cells assessed as cell growth inhibition measured after 72 hrs by MTT assay; type: functional, cell-based; settings: BXPC-3, 72 h
PANC-1 = assay: Cytotoxicity against human PANC-1 cells assessed as cell growth inhibition measured after 72 hrs by MTT assay; type: functional, cell-based; settings: PANC-1, 72 h
CFPAC-1 = assay: Cytotoxicity against human CFPAC-1 cells assessed as cell growth inhibition measured after 72 hrs by MTT assay; type: functional, cell-based; settings: CFPAC-1, 72 h
SiHa = assay: Cytotoxicity against human SiHa cells assessed as cell growth inhibition; type: functional, cell-based
Paracentrotus lividus [1] = assay: Antimitotic activity against sea urchin embryo assessed as cleavage alteration measured 2.5 to 6 hrs post-fertilization by light microscopy analysis; type: functional; settings: time hrs 2.5-6
A549 = assay: Cytotoxicity against human A549 cells assessed as cell growth inhibition; type: functional, cell-based
T47D = assay: Cytotoxicity against human T47D cells assessed as cell growth inhibition; type: functional, cell-based
DU-145 = assay: Cytotoxicity against human DU-145 cells assessed as cell growth inhibition; type: functional, cell-based
A-375 = assay: Cytotoxicity against human A-375 cells assessed as cell growth inhibition; type: functional, cell-based
SK-OV-3 = assay: Cytotoxicity against human SK-OV-3 cells assessed as cell growth inhibition; type: functional, cell-based
[2] = Selectivity ratio of IC50 for human HFF cells to IC50 for human A-375 cells assessed as cell growth inhibition
HFF = assay: Cytotoxicity against human HFF cells assessed as cell growth inhibition; type: cell-based
PC-3 = assay: Cytotoxicity against human PC-3 cells assessed as cell growth inhibition; type: functional, cell-based
Paracentrotus lividus [3] = assay: Antimitotic activity against sea urchin embryo assessed as cleavage arrest measured 2.5 to 6 hrs post-fertilization by light microscopy analysis; type: functional; settings: time hrs 2.5-6
HCT-116 = assay: Cytotoxicity against human HCT-116 cells assessed as cell growth inhibition; type: functional, cell-based
Paracentrotus lividus [4] = assay: Induction of microtubule destabilization in sea urchin embryo assessed as embryo spinning measured after 0.5 to 20 hrs; type: tissue-based; settings: time hrs 0.5-20
Paracentrotus lividus [5] = assay: Antimitotic activity against sea urchin embryo assessed as cleavage alteration measured 3 to 6 hrs post-fertilization by light microscopy analysis; type: functional; settings: time hrs 3-6
Paracentrotus lividus [6] = assay: Antimitotic activity against sea urchin embryo assessed as cleavage arrest measured 3 to 6 hrs post-fertilization by light microscopy analysis; type: functional; settings: time hrs 3-6
[7] = Cytotoxicity against human KKU-100 cells assessed as cell growth inhibition after 48 hrs; type: functional, cell-based; settings: KKU100, 48 h
Paracentrotus lividus [8] = assay: Antimitotic activity against sea urchin embryo assessed as cleavage alteration measured 2.5 to 5.5 hrs post-fertilization using compound stored for 4.5 days in 96% EtOH at room temperature by light microscopy analysis; type: functional; settings: time hrs 2.5-5.5
Paracentrotus lividus [9] = assay: Antimitotic activity against sea urchin embryo assessed as cleavage alteration measured 2.5 to 5.5 hrs post-fertilization using compound stored for 2.5 days in 96% EtOH at room temperature by light microscopy analysis; type: functional; settings: time hrs 2.5-5.5
Paracentrotus lividus [10] = assay: Antimitotic activity against sea urchin embryo assessed as cleavage arrest measured 2.5 to 5.5 hrs post-fertilization using compound stored for 4.5 days in 96% EtOH at room temperature by light microscopy analysis; type: functional; settings: time hrs 2.5-5.5
Paracentrotus lividus [11] = assay: Antimitotic activity against sea urchin embryo assessed as cleavage alteration measured 2.5 to 5.5 hrs post-fertilization using compound stored for 1 hr in 96% EtOH at room temperature by light microscopy analysis; type: functional; settings: time hrs 2.5-5.5
Paracentrotus lividus [12] = assay: Antimitotic activity against sea urchin embryo assessed as cleavage arrest measured 2.5 to 5.5 hrs post-fertilization using compound stored for 2.5 days in 96% EtOH at room temperature by light microscopy analysis; type: functional; settings: time hrs 2.5-5.5
Paracentrotus lividus [13] = assay: Antimitotic activity against sea urchin embryo assessed as cleavage alteration measured 2.5 to 5.5 hrs post-fertilization using compound stored for 13 hrs in 96% EtOH at room temperature by light microscopy analysis; type: functional; settings: time hrs 2.5-5.5
Paracentrotus lividus [14] = assay: Antimitotic activity against sea urchin embryo assessed as cleavage arrest measured 2.5 to 5.5 hrs post-fertilization using compound stored for 13 hrs in 96% EtOH at room temperature by light microscopy analysis; type: functional; settings: time hrs 2.5-5.5
Paracentrotus lividus [15] = assay: Antimitotic activity against sea urchin embryo assessed as cleavage arrest measured 2.5 to 5.5 hrs post-fertilization using compound stored for 1 hr in 96% EtOH at room temperature by light microscopy analysis; type: functional; settings: time hrs 2.5-5.5
Paracentrotus lividus [16] = assay: Antimitotic activity against sea urchin embryo assessed as cleavage arrest measured 2.5 to 5.5 hrs post-fertilization using compound stored for 1 month in 96% EtOH at room temperature by light microscopy analysis; type: functional; settings: time hrs 2.5-5.5
Paracentrotus lividus [17] = assay: Antimitotic activity against sea urchin embryo assessed as cleavage alteration measured 2.5 to 5.5 hrs post-fertilization using compound stored for 1 month in 96% EtOH at room temperature by light microscopy analysis; type: functional; settings: time hrs 2.5-5.5
Paracentrotus lividus [18] = assay: Antimitotic activity against sea urchin embryo assessed as cleavage arrest measured 2.5 to 5.5 hrs post-fertilization using compound stored for 4 days in 96% EtOH at room temperature by light microscopy analysis; type: functional; settings: time hrs 2.5-5.5
Paracentrotus lividus [19] = assay: Antimitotic activity against sea urchin embryo assessed as cleavage alteration measured 2.5 to 5.5 hrs post-fertilization using compound stored for 4 days in 96% EtOH at room temperature by light microscopy analysis; type: functional; settings: time hrs 2.5-5.5
Paracentrotus lividus [20] = assay: Antimitotic activity against sea urchin embryo assessed as cleavage alteration measured 2.5 to 5.5 hrs post-fertilization using compound stored for 2 days in 96% EtOH at room temperature by light microscopy analysis; type: functional; settings: time hrs 2.5-5.5
Paracentrotus lividus [21] = assay: Antimitotic activity against sea urchin embryo assessed as cleavage arrest measured 2.5 to 5.5 hrs post-fertilization using compound stored for 2 days in 96% EtOH at room temperature by light microscopy analysis; type: functional; settings: time hrs 2.5-5.5
[22] = Aggregation property of the compound in water; type: physicochemical; settings: buffer
[23] = Aqueous solubility of the compound at physiological pH by H-NMR analysis; type: physicochemical; settings: aqueous solution

Work on `O=P(O)(O)C(O)(Cc1cccnc1)P(=O)(O)O` [RISEDRONIC ACID] yielded a pIC50 (MCF7) of 3.61.
With `O=P(O)(O)C(O)(Cn1ccnc1)P(=O)(O)O` [ZOLEDRONIC ACID] the pIC50 (HeLa) was 5.00, the pIC50 (Ca-Ski) was 5.00 and the pIC50 (BXPC-3) was 5.00. For the same compound, the pIC50 (PANC-1) was 5.00, the pIC50 (CFPAC-1) was 5.00 and the pIC50 (SiHa) was 5.00.
Compound `COc1ccc(NC(=O)C(=O)c2cn(CC(P(=O)(O)O)P(=O)(O)O)c3ccccc23)cc1` [listing 1 of 2 here] has an EC (Paracentrotus lividus [1]) of 0.001 µM, a pIC50 (A549) of 6.65 and a pIC50 (T47D) of 6.18. For the same compound, the pIC50 (DU-145) was 6.32, the pIC50 (A-375) was 7.47 and the pIC50 (SK-OV-3) was 5.49. For the same compound, the “Ratio IC50” value [2] was 70, the pIC50 (HFF) was 5.62 and the pIC50 (PC-3) was 5.12. For the same compound, the EC (Paracentrotus lividus [3]) was 0.002 µM and the pIC50 (HCT-116) was 6.65.
For `COc1ccc(NC(=O)C(=O)c2c[nH]c3ccccc23)cc1`, the EC (Paracentrotus lividus [4]) was 0.2 µM, the EC (Paracentrotus lividus [5]) was 0.001 µM and the EC (Paracentrotus lividus [6]) was 0.005 µM.
Work on `CCOP(=O)(OCC)C(Cn1cc(C(=O)C(=O)O)c2ccc(F)cc21)P(=O)(OCC)OCC` yielded an EC (Paracentrotus lividus [4]) greater than 4 µM, an EC (Paracentrotus lividus [1]) greater than 4 µM and an EC (Paracentrotus lividus [3]) greater than 4 µM.
For `Nc1ncnc2c1ccn2[C@@H]1O[C@H](CO)[C@@H](O)[C@H]1O` [TUBERCIDIN], the pIC50 (A549) was 7.36, the pIC50 (T47D) was 7.89 and the pIC50 (DU-145) was 6.59. The pIC50 (A-375) was 7.37, the pIC50 (SK-OV-3) was 6.88 and the pIC50 (HFF) was 6.10. The pIC50 (PC-3) was 7.12 and the pIC50 (HCT-116) was 7.09.
For `NCCC(O)(P(=O)(O)O)P(=O)(O)O` [PAMIDRONIC ACID], the pIC50 (MCF7) was 4.64 and the pIC50 [7] was 3.83.
Work on `COc1ccc(NC(=O)C(=O)c2c[nH]c3cc(F)ccc23)cc1` yielded an EC (Paracentrotus lividus [4]) of 1 µM, an EC (Paracentrotus lividus [5]) of 0.001 µM and an EC (Paracentrotus lividus [6]) of 0.005 µM.
In the case of `CCOP(=O)(OCC)C(Cn1cc(C(=O)C(=O)Nc2ccc3c(c2)OCCO3)c2ccc(F)cc21)P(=O)(OCC)OCC`, the EC (Paracentrotus lividus [8]) was less than 0.01 µM, the EC (Paracentrotus lividus [4]) was 0.1 µM and the EC (Paracentrotus lividus [9]) was less than 0.02 µM. The EC (Paracentrotus lividus [10]) was 0.01 µM, the EC (Paracentrotus lividus [11]) was 0.5 µM and the EC (Paracentrotus lividus [12]) was 0.02 µM. The EC (Paracentrotus lividus [13]) was 0.02 µM, the EC (Paracentrotus lividus [14]) was 0.05 µM and the EC (Paracentrotus lividus [15]) was 0.2 µM.
`O=C(Nc1ccc2c(c1)OCCO2)C(=O)c1c[nH]c2ccccc12` gave an EC (Paracentrotus lividus [4]) of 0.02 µM, an EC (Paracentrotus lividus [5]) of 0.002 µM and an EC (Paracentrotus lividus [6]) of 0.005 µM.
`O=C(Nc1ccc2c(c1)OCCO2)C(=O)c1c[nH]c2cc(F)ccc12` showed an EC (Paracentrotus lividus [4]) of 0.5 µM, an EC (Paracentrotus lividus [5]) of 0.005 µM and an EC (Paracentrotus lividus [6]) of 0.02 µM.
In the case of `CCOP(=O)(OCC)C(Cn1cc(C(=O)C(=O)Nc2ccc(OC)cc2)c2ccccc21)P(=O)(OCC)OCC`, the EC (Paracentrotus lividus [16]) was 0.005 µM, the EC (Paracentrotus lividus [4]) was 0.2 µM and the EC (Paracentrotus lividus [11]) was 0.5 µM. The EC (Paracentrotus lividus [17]) was 0.002 µM, the EC (Paracentrotus lividus [18]) was 0.02 µM and the EC (Paracentrotus lividus [19]) was 0.005 µM. For the same compound, the EC (Paracentrotus lividus [20]) was 0.02 µM, the EC (Paracentrotus lividus [15]) was 0.2 µM and the EC (Paracentrotus lividus [21]) was 0.1 µM.
`NCCCC(O)(P(=O)(O)O)P(=O)(O)O` [ALENDRONIC ACID] gave a pIC50 (MCF7) of 4.16.
Work on `COc1ccc(NC(=O)C(=O)c2cn(CC(P(=O)(O)O)P(=O)(O)O)c3ccccc23)cc1` [listing 2 of 2 here] yielded an EC (Paracentrotus lividus [4]) of 0.005 µM.
Work on `CCOP(=O)(OCC)C(Cn1cc(C(=O)C(=O)Nc2cccc(OC)c2)c2ccc(F)cc21)P(=O)(OCC)OCC` yielded an EC (Paracentrotus lividus [4]) greater than 4 µM, an EC (Paracentrotus lividus [11]) of 1 µM and an EC (Paracentrotus lividus [15]) greater than 4 µM.
Work on `O=C(Nc1ccncc1)C(=O)c1cn(Cc2ccc(Cl)cc2)c2ccccc12` [INDIBULIN] yielded an EC (Paracentrotus lividus [4]) of 0.1 µM, an EC (Paracentrotus lividus [1]) of 0.01 µM and a pIC50 (A549) of 6.40. For the same compound, the pIC50 (T47D) was 7.40, the pIC50 (DU-145) was 7.30 and the CAC [22] was 0.00039 mg/mL. The pIC50 (SK-OV-3) was 6.70, the pIC50 (PC-3) was 7.40 and the EC (Paracentrotus lividus [3]) was 0.02 µM. The pIC50 (HCT-116) was 7.30.
With `CCOP(=O)(OCC)C(Cn1cc(C(=O)C(=O)Nc2ccc3c(c2)OCCO3)c2ccccc21)P(=O)(OCC)OCC` the EC (Paracentrotus lividus [4]) was 0.1 µM, the EC (Paracentrotus lividus [11]) was 0.5 µM and the EC (Paracentrotus lividus [15]) was 0.2 µM.
`COc1cccc(NC(=O)C(=O)c2c[nH]c3cc(F)ccc23)c1` showed an EC (Paracentrotus lividus [4]) greater than 4 µM, an EC (Paracentrotus lividus [5]) of 0.2 µM and an EC (Paracentrotus lividus [6]) greater than 4 µM.
`COc1ccc(NC(=O)C(=O)c2cn(CC(P(=O)([O-])[O-])P(=O)([O-])[O-])c3ccccc23)cc1.[Na+].[Na+].[Na+].[Na+]` gave a solubility [23] of 10000 µg/mL.
Compound `CCOP(=O)(OCC)C(Cn1cc(C(=O)C(=O)Nc2ccc(OC)cc2)c2ccc(F)cc21)P(=O)(OCC)OCC` has an EC (Paracentrotus lividus [4]) of 0.5 µM, an EC (Paracentrotus lividus [11]) of 0.5 µM and an EC (Paracentrotus lividus [15]) of 0.2 µM.

Source: ChEMBL document CHEMBL4699613, “Synthesis and biological evaluation of indolylglyoxylamide bisphosphonates, antimitotic microtubule-targeting derivatives of indibulin with improved aqueous solubility” (Bioorg Med Chem Lett, 2020)
